TGI data for 21 compounds are collected here from PubChem BioAssay (NCI).

Molecules are shown by their SMILES.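 Interpolation was linear, between the two tested concentrations surrounding the appropriate level; five concentrations were tested over 48 hours in 96-well plates. TGI is the concentration that stops growth completely.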

For one assay, the system named is HT29 colon. Put plainly: NCI anticancer screen, dose series, 48 h.
Regarding `CCCCOC(=O)C1C2CCC(O2)C1C(=O)OCCCC` (stereo not drawn), the TGI is > 64.2 µM.
Same read-out and setting: the value for `C=CCN1C(=O)C=C(c2ccccc2)n2ncc3cccc1c32` was > 100 µM.
The same measure, in the same setting: the value for `O=C([O-])C[n+]1ccccc1` was > 100 µM.
`CN(C)CCCSc1nc2ccccc2[nH]1`: the TGI is > 100 µM.

The next assay has as its system MALME-3M melanoma. The assay is described as follows: NCI anticancer screen, dose series, 48 h.
In turn, `O=C1/C(=C/c2cccc(Br)c2)CCc2ccccc21` yielded a TGI of 26 µM.
The same measure, in the same setting: the value for `Cc1ccc(S(=O)(=O)n2cc(-c3cc(C(F)(F)F)ccn3)c3cc(Br)ccc32)cc1` was 52.7 µM.
`CN(CCCCCl)P(=O)(OCc1ccc([N+](=O)[O-])o1)OC[C@H]1O[C@@H](n2cc(F)c(=O)[nH]c2=O)C[C@@H]1O` (stereo partly drawn): the TGI came out at 36.1 µM.
Compound `CC1C2(C)OC(=N)C(C#N)(C(c3ccccc3)O2)C1(C#N)C#N` (stereo not drawn) came in with a TGI of 90.3 µM.
Still for that read-out and setting: the value for `O=C1NC2ON=C(c3ccccc3)C2C2ON=C(c3ccccc3)N12` (stereo not drawn) was > 100 µM; that for `COC(=O)C1(C(=O)OC)Cc2ccc(OC)cc2C2=C1C(=O)c1ccccc1C2=O` was 26.3 µM.
Still for that read-out and setting: the value for `COCCOC(=O)c1c(C)n([O-])c2cc(Cl)c(Cl)cc2[n+]1=O` was 46.3 µM; that for `COc1ccc2[nH]cc(CCNC(=O)[C@H](Cc3ccccc3)NC(=O)[C@@H](NCC(F)(F)F)C(C)C)c2c1` was 51.9 µM; that for `C=CCNC1=C2C[C@@H](C)C[C@@H](OC)[C@H](OC(=O)CCN)[C@H](C)/C=C(\C)[C@@H](OC(N)=O)[C@H](OC)/C=C\C=C(/C)C(=O)NC(=CC1=O)C2=O` was 14.1 µM.
As for `C1=NCCN2CCN(CCN=Cc3ccc(cc3)OCc3cccc(n3)COc3ccc1cc3)CC2`, the TGI is > 50 µM.
Still for that read-out and setting: for `C(=C\c1cccs1)/c1cccc(/C=C/c2cccs2)n1` the value was 3.21 µM; for `CC(CCN)(CCN)[N+](=O)[O-]`, > 100 µM.
The same measure, in the same setting: the value for `C/C(CC(=O)Nc1ccc([N+](=O)[O-])cc1)=N\NC(N)=O` was > 100 µM; that for `CCCCOC(=O)C1C2CCC(O2)C1C(=O)OCCCC` (stereo not drawn) was > 100 µM; that for `C=CCN1C(=O)C=C(c2ccccc2)n2ncc3cccc1c32` was > 100 µM.
On the same count and under the same terms, the value for `O=C([O-])C[n+]1ccccc1` was > 100 µM.
In the case of `CSc1nc(C#N)c(/N=C\N(C)C)n1C`, the TGI is > 100 µM.
The same measure, in the same setting: the value for `CN(C)CCCSc1nc2ccccc2[nH]1` was > 100 µM.

The next assay deals with SF-268 CNS. The assay is described as follows: NCI anticancer screen, dose series, 48 h.
On to `O=C1/C(=C/c2cccc(Br)c2)CCc2ccccc21`, for which the TGI was determined as 21.8 µM.
On the same count and under the same terms, the value for `Cc1ccc(S(=O)(=O)n2cc(-c3cc(C(F)(F)F)ccn3)c3cc(Br)ccc32)cc1` was 93.9 µM.
On the same count and under the same terms, the value for `CN(CCCCCl)P(=O)(OCc1ccc([N+](=O)[O-])o1)OC[C@H]1O[C@@H](n2cc(F)c(=O)[nH]c2=O)C[C@@H]1O` (stereo partly drawn) was 13.2 µM; that for `CC1C2(C)OC(=N)C(C#N)(C(c3ccccc3)O2)C1(C#N)C#N` (stereo not drawn) was 76.1 µM; that for `O=C1NC2ON=C(c3ccccc3)C2C2ON=C(c3ccccc3)N12` (stereo not drawn) was > 100 µM.
On the same count and under the same terms, the value for `COC(=O)C1(C(=O)OC)Cc2ccc(OC)cc2C2=C1C(=O)c1ccccc1C2=O` was 26.2 µM; that for `COCCOC(=O)c1c(C)n([O-])c2cc(Cl)c(Cl)cc2[n+]1=O` was 59.1 µM.
As to `COc1ccc(Nc2nnc(-c3nsc4ccccc34)s2)cc1`, the TGI is > 100 µM.
Still for that read-out and setting: for `C=CCNC1=C2C[C@@H](C)C[C@@H](OC)[C@H](OC(=O)CCN)[C@H](C)/C=C(\C)[C@@H](OC(N)=O)[C@H](OC)/C=C\C=C(/C)C(=O)NC(=CC1=O)C2=O` the value was 25.5 µM.
On the same count and under the same terms, the value for `C1=NCCN2CCN(CCN=Cc3ccc(cc3)OCc3cccc(n3)COc3ccc1cc3)CC2` was > 50 µM.
On the same count and under the same terms, for `C(=C\c1cccs1)/c1cccc(/C=C/c2cccs2)n1` the value was 6.9 µM; for `CC(CCN)(CCN)[N+](=O)[O-]`, > 100 µM.
Compound `Cn1c(=O)c(Br)c(C=O)n(CCO[N+](=O)[O-])c1=O` displayed a TGI of 31.3 µM.
Still for that read-out and setting: the value for `C/C(CC(=O)Nc1ccc([N+](=O)[O-])cc1)=N\NC(N)=O` was > 100 µM; that for `CCCCOC(=O)C1C2CCC(O2)C1C(=O)OCCCC` (stereo not drawn) was > 100 µM.
The same measure, in the same setting: for `C=CCN1C(=O)C=C(c2ccccc2)n2ncc3cccc1c32` the value was > 100 µM.
For the compound `O=C([O-])C[n+]1ccccc1`, the TGI was > 100 µM.
Same read-out and setting: for `CSc1nc(C#N)c(/N=C\N(C)C)n1C` the value was > 100 µM; for `CN(C)CCCSc1nc2ccccc2[nH]1`, > 100 µM.

The test system of a further assay is U251 CNS. The assay is described as follows: NCI anticancer screen, dose series, 48 h.
Turning to `O=C1/C(=C/c2cccc(Br)c2)CCc2ccccc21`, the TGI was 28 µM.
On the same count and under the same terms, the value for `Cc1ccc(S(=O)(=O)n2cc(-c3cc(C(F)(F)F)ccn3)c3cc(Br)ccc32)cc1` was 34.3 µM; that for `CN(CCCCCl)P(=O)(OCc1ccc([N+](=O)[O-])o1)OC[C@H]1O[C@@H](n2cc(F)c(=O)[nH]c2=O)C[C@@H]1O` (stereo partly drawn) was 34.6 µM; that for `CC1C2(C)OC(=N)C(C#N)(C(c3ccccc3)O2)C1(C#N)C#N` (stereo not drawn) was 46.6 µM.
As for `COC(=O)C1(C(=O)OC)Cc2ccc(OC)cc2C2=C1C(=O)c1ccccc1C2=O`, the TGI was found to be 14.8 µM.
Still for that read-out and setting: for `COCCOC(=O)c1c(C)n([O-])c2cc(Cl)c(Cl)cc2[n+]1=O` the value was > 100 µM; for `COc1ccc2[nH]cc(CCNC(=O)[C@H](Cc3ccccc3)NC(=O)[C@@H](NCC(F)(F)F)C(C)C)c2c1`, 39 µM.
Same read-out and setting: the value for `COc1ccc(Nc2nnc(-c3nsc4ccccc34)s2)cc1` was > 100 µM.
The compound `C=CCNC1=C2C[C@@H](C)C[C@@H](OC)[C@H](OC(=O)CCN)[C@H](C)/C=C(\C)[C@@H](OC(N)=O)[C@H](OC)/C=C\C=C(/C)C(=O)NC(=CC1=O)C2=O` gave a TGI of 18.8 µM.
Same read-out and setting: the value for `C1=NCCN2CCN(CCN=Cc3ccc(cc3)OCc3cccc(n3)COc3ccc1cc3)CC2` was > 50 µM; that for `C(=C\c1cccs1)/c1cccc(/C=C/c2cccs2)n1` was > 100 µM; that for `CC(CCN)(CCN)[N+](=O)[O-]` was > 100 µM.
The same measure, in the same setting: for `Cn1c(=O)c(Br)c(C=O)n(CCO[N+](=O)[O-])c1=O` the value was 9.77 µM.
Still for that read-out and setting: the value for `C/C(CC(=O)Nc1ccc([N+](=O)[O-])cc1)=N\NC(N)=O` was > 100 µM.
For the compound `CCOC(=O)c1cccn1S(=O)(=O)c1cc(Cl)ccc1NC(=O)CC`, the TGI is > 100 µM.
The same measure, in the same setting: the value for `CCCCOC(=O)C1C2CCC(O2)C1C(=O)OCCCC` (stereo not drawn) was > 100 µM; that for `C=CCN1C(=O)C=C(c2ccccc2)n2ncc3cccc1c32` was > 100 µM; that for `O=C([O-])C[n+]1ccccc1` was > 100 µM.
On the same count and under the same terms, the value for `CSc1nc(C#N)c(/N=C\N(C)C)n1C` was > 100 µM; that for `CN(C)CCCSc1nc2ccccc2[nH]1` was > 100 µM.

Another assay concerns HCC-2998 colon. Put plainly: NCI anticancer screen, dose series, 48 h.
In turn, `Cc1ccc(S(=O)(=O)n2cc(-c3cc(C(F)(F)F)ccn3)c3cc(Br)ccc32)cc1` came in with a TGI of 62.6 µM.
Same read-out and setting: the value for `CC1C2(C)OC(=N)C(C#N)(C(c3ccccc3)O2)C1(C#N)C#N` (stereo not drawn) was 22.7 µM; that for `O=C1NC2ON=C(c3ccccc3)C2C2ON=C(c3ccccc3)N12` (stereo not drawn) was > 100 µM.
On the same count and under the same terms, for `COC(=O)C1(C(=O)OC)Cc2ccc(OC)cc2C2=C1C(=O)c1ccccc1C2=O` the value was 37.6 µM; for `COc1ccc(Nc2nnc(-c3nsc4ccccc34)s2)cc1`, > 100 µM; for `C=CCNC1=C2C[C@@H](C)C[C@@H](OC)[C@H](OC(=O)CCN)[C@H](C)/C=C(\C)[C@@H](OC(N)=O)[C@H](OC)/C=C\C=C(/C)C(=O)NC(=CC1=O)C2=O`, 3.61 µM.
Still for that read-out and setting: for `C(=C\c1cccs1)/c1cccc(/C=C/c2cccs2)n1` the value was > 100 µM.
